# Reference: BindingDB's records for doi:10.7270/Q2DV1HSV (Jishou University, 2017)
# Molecular target: Alpha-glucosidase MAL32 (Saccharomyces cerevisiae (strain ATCC 204508 / S288c), UniProt P38158)
# Assay: In Vitro α-Glucosidase Inhibitory Assay
# Conditions: pH 6.8; 37 °C
# Experimental: The α-glucosidase inhibition assay had been carried out using baker's yeast α-glucosidase (EC 3.2.1.20) and p-nitrophenyl α-d-glucopyranoside. The test compounds were dissolved in DMSO to prepare the required distributing concentration. α-Glucosidase inhibitory activity was assayed by using 0.1 M phosphate buffer (pH 6.8) at 37 °C. The enzyme (0.1 U/mL) in phosphate buffer saline was incubated with various concentrations of test compounds at 37 °C for 15 min. […] After further incubation at 37 °C for 30 min. […] The sample solution was replaced by DMSO as a control. Acarbose was used as a positive control. All experiments were carried out in triplicates.
# Chain of Alpha-glucosidase MAL32 (P38158 whole entry): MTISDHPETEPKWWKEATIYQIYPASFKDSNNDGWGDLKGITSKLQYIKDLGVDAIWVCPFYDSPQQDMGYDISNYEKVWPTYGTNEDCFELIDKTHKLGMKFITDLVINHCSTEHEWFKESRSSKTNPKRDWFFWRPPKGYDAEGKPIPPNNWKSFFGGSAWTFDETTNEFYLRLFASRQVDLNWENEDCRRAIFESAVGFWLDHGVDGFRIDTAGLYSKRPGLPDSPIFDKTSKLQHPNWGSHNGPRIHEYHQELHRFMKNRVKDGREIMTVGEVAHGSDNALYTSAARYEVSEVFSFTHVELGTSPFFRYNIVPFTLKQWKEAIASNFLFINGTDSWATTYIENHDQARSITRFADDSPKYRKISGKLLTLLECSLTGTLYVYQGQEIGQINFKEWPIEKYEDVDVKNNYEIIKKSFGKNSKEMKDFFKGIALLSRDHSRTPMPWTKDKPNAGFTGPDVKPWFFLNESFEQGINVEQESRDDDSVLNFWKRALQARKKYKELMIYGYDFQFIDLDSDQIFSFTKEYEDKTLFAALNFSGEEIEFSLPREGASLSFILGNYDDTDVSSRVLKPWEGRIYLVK
row,SMILES,IC50
1,"O=C1Nc2ccccc2C1(c1cn(Cc2ccccc2)c2ccccc12)c1cn(Cc2ccccc2)c2ccccc12 [1,1''-Dibenzyl-1H,1''H-[3,3':3',3''-terindol]-2'(1'H)-one (4f)]",9.83 µM
2,"CCCCn1cc(C2(c3cn(CCCC)c4ccccc34)C(=O)Nc3ccccc32)c2ccccc21 [1,1''-Dibutyl-[3,3':3',3''-terindolin]-2'-one (4m)]",13.6 µM
3,"CC(C)Cn1cc(C2(c3cn(CC(C)C)c4ccccc34)C(=O)Nc3ccccc32)c2ccccc21 [1,1''-Diisobutyl-[3,3':3',3''-terindolin]-2'-one (4n)]",14.8 µM
4,"CC(C)n1cc(C2(c3cn(C(C)C)c4ccccc34)C(=O)Nc3ccccc32)c2ccccc21 [1,1''-Diisopropyl-[3,3':3',3''-terindolin]-2'-one (4l)]",10.3 µM
5,"Cn1cc(C2(c3cn(C)c4ccccc34)C(=O)Nc3ccccc32)c2ccccc21 [1,1''-Dimethyl-1H,1''H-[3,3':3',3''-terindol]-2'(1'H)-one (4e)]",13.7 µM
6,"CCCn1cc(C2(c3cn(CCC)c4ccccc34)C(=O)Nc3ccccc32)c2ccccc21 [1,1''-Dipropyl-[3,3':3',3''-terindolin]-2'-one (4k)]",11 µM
7,"O=C1Nc2ccccc2C1(c1cn(Cc2ccccc2Cl)c2ccccc12)c1cn(Cc2ccccc2Cl)c2ccccc12 [1,1''-bis(2-Chlorobenzyl)-[3,3':3',3''-terindolin]-2'-one (4i)]",7.31 µM
8,"O=C1Nc2ccccc2C1(c1cn(Cc2ccccc2F)c2ccccc12)c1cn(Cc2ccccc2F)c2ccccc12 [1,1''-bis(2-Fluorobenzyl)-[3,3':3',3''-terindolin]-2'-one (4j)]",5.98 µM
9,"O=C1Nc2ccccc2C1(c1cn(Cc2cccc(F)c2)c2ccccc12)c1cn(Cc2cccc(F)c2)c2ccccc12 [1,1''-bis(3-Fluorobenzyl)-1H,1''H-[3,3':3',3''-terindol]-2'(1'H)-one (4g)]",7.92 µM
10,"O=C1Nc2ccccc2C1(c1cn(Cc2ccc(Br)cc2)c2ccccc12)c1cn(Cc2ccc(Br)cc2)c2ccccc12 [1,1''-bis(4-Bromobenzyl)-1H,1''H-[3,3':3',3''-terindol]-2'(1'H)-one (4h)]",9.16 µM
11,"O=C1Nc2ccccc2C1(c1c[nH]c2ccccc12)c1c[nH]c2ccccc12 [1H,1''H-[3,3':3',3''-terindol]-2'(1'H)-one (4a)]",146 µM
12,"O=C1Nc2ccc(Br)cc2C1(c1c[nH]c2ccccc12)c1c[nH]c2ccccc12 [5'-Bromo-1H,1''H-[3,3':3',3''-terindol]-2'(1'H)-one (4b)]",20.5 µM
13,"Cc1ccc2c(c1)C(c1c[nH]c3ccccc13)(c1c[nH]c3ccccc13)C(=O)N2 [5'-Methyl-1H,1''H-[3,3':3',3''-terindol]-2'(1'H)-one (4d)]",30.1 µM
